Laboratory results taken from PubChem BioAssay (NCI).
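Five concentrations, 48 hours, 96-well plates. Abbreviation: GI50, concentration required for 50% inhibition of growth. TGI: concentration producing complete growth inhibition.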

Tests used:
Test in all cases: NCI-60 cell line screen, 48 h
MALME-3M melanoma = system: MALME-3M melanoma
SK-MEL-5 melanoma = system: SK-MEL-5 melanoma
EKVX NSCLC = system: EKVX NSCLC
NCI-H226 lung = system: NCI-H226 lung
SK-MEL-2 melanoma = system: SK-MEL-2 melanoma
M14 melanoma = system: M14 melanoma
LOX IMVI melanoma = system: LOX IMVI melanoma
RPMI-8226 leukemia = system: RPMI-8226 leukemia
MDA-MB-435 = system: MDA-MB-435
MDA-MB-231 breast = system: MDA-MB-231 breast

| Compound | TGI (MALME-3M melanoma) [µM] | TGI (SK-MEL-5 melanoma) [µM] | TGI (EKVX NSCLC) [µM] | TGI (NCI-H226 lung) [µM] | TGI (SK-MEL-2 melanoma) [µM] | TGI (M14 melanoma) [µM] | TGI (LOX IMVI melanoma) [µM] | GI50 (MALME-3M melanoma) [µM] | GI50 (SK-MEL-5 melanoma) [µM] | GI50 (EKVX NSCLC) [µM] | GI50 (NCI-H226 lung) [µM] | GI50 (RPMI-8226 leukemia) [µM] | TGI (RPMI-8226 leukemia) [µM] | GI50 (SK-MEL-2 melanoma) [µM] | GI50 (M14 melanoma) [µM] | GI50 (LOX IMVI melanoma) [µM] | GI50 (MDA-MB-435) [µM] | TGI (MDA-MB-435) [µM] | GI50 (MDA-MB-231 breast) [µM] | TGI (MDA-MB-231 breast) [µM] |
| --- | --- | --- | --- | --- | --- | --- | --- | --- | --- | --- | --- | --- | --- | --- | --- | --- | --- | --- | --- | --- |
| COCCNC(=O)C1C(=O)C(=O)N(CCOC)C1=O (stereo unspecified) | > 100 | > 100 | > 100 | > 100 | > 100 | > 100 | > 100 |  |  |  |  |  |  |  |  |  |  |  |  |  |
| Cc1ccc(C)c(N2C(=O)C(=O)C(c3nc4ccccc4s3)/C(=N/NC(=O)NN)C2=O)c1 (stereo unspecified) | > 100 | > 100 | > 100 | > 100 | > 100 | > 100 |  |  |  |  |  |  |  |  |  |  |  |  |  |  |
| CCN(CC)CCCCCCNc1cc(OC)cc2cccnc12 | 3.93 | 6.34 | 26.3 | 43.2 | 32.6 | 3.74 | 3.31 | 2.03 | 2.53 | 13.4 | 21.3 | 2.38 | 5.45 | 17.6 | 1.93 | 1.74 | 1.84 | 3.63 |  |  |
| C[CH2][Sn]([CH2]C)([O]C(=O)c1ccccc1OC)[O][Sn]([CH2]C)([CH2]C)[O]C(=O)c1ccccc1OC | > 100 | > 100 | > 100 | > 100 | > 100 | > 100 | > 100 | 27.6 | > 100 | > 100 | > 100 |  |  | 91.5 | > 100 | 73 |  |  |  |  |
| COC(=O)[C@@]1(C(C)CC(=O)O)CCCCC1=O (stereo partly specified) | > 100 | > 100 | > 100 | > 100 | > 100 | > 100 | > 100 |  |  |  |  |  | 82 |  |  |  |  |  |  |  |
| C=C1CCC2[C@@H](CCC3[C@]2(C)CCC[C@]3(C)C(=O)OC)C1CC=O (stereo partly specified) | 37.5 | 33.9 | 36 | 37.2 | 38.2 | 30.6 |  |  |  |  |  | 8.28 | 33.4 |  |  |  |  |  |  |  |
| CCCCCO/N=C\c1c2c(O)c3c(O)c(C)c4c(c3c1O)C(=O)C(C)(O/C=C\C(OC)C(C)C(OC(C)=O)C(C)C(O)C(C)C(O)C(C)/C=C\C=C(\C)C(=O)N2)O4 (stereo unspecified) |  | 2.82 | 6.95 |  |  | 3.01 | 3.01 |  | 1.5 | 2.09 |  | 2.34 | 6.69 |  | 1.62 | 1.65 | 1.81 | 3.68 | 1.75 | 3.2 |
| NC(=O)C(=O)C1CCC2=C(Sc3ccccc3N2)C1=O (stereo unspecified) | > 100 | > 100 | > 100 |  | > 100 | > 100 | > 100 |  |  |  |  |  | > 100 |  |  |  |  |  |  |  |
| Nc1c([N+](=O)[O-])nc(Cl)c2nncn12 | > 100 | > 100 | > 100 | > 100 | > 100 | > 100 | > 61.1 |  |  |  |  |  | > 69.7 |  |  |  |  |  |  |  |
| N#CC(C#N)c1ccc(C(=O)N2CCC[C@H]2CO)cc1 | > 100 | > 100 | > 100 |  | > 100 | > 100 | > 100 |  |  |  |  |  | > 100 |  |  |  |  |  |  |  |
| COc1ccc(-c2cc(C(=O)Nc3ccc(C)c(C)c3)nc(NC#N)n2)cc1 | > 100 | > 100 | > 100 |  | > 100 | > 100 | > 100 |  |  |  |  |  | > 100 |  |  |  |  |  |  |  |
| Cc1ccccc1NC(=O)C(=O)C(C#N)c1ccccc1C (stereo unspecified) | > 100 | > 100 | > 100 | > 100 | > 100 | > 100 | 39.4 |  |  |  |  |  | > 100 |  |  |  |  |  |  |  |
| COCOCC/C=C/C=O | > 100 | > 100 | > 100 |  | > 100 | > 100 | > 100 |  |  |  |  |  | > 100 |  |  |  |  |  |  |  |
| Cc1ccc(S(=O)(=O)N/N=C(/CC(=O)c2c(C)n([O-])c3ccccc3[n+]2=O)C(=O)Nc2ccccc2C)cc1 | > 100 |  | > 100 | > 100 | > 100 | > 100 |  |  |  |  |  |  | > 100 |  |  |  |  |  |  |  |
| CC1(C)CC(=O)C(/C(=N/NC(=S)NN)C(=O)Nc2nc3ccc([N+](=O)[O-])cc3s2)C(=O)C1 | > 100 | > 100 | > 100 | > 100 | > 100 | > 100 | > 100 |  |  |  |  |  |  |  |  |  |  |  |  |  |
| NC(=O)NNC(=O)NC12CC3CC(CC(C3)C1)C2 | > 100 | > 100 | > 100 | > 100 | > 100 | > 100 | > 100 |  |  |  |  |  |  |  |  |  |  |  |  |  |
| N#CC(c1ccccn1)c1nc2ccccc2[nH]1 (stereo unspecified) | > 100 | > 100 | > 100 | > 100 | > 100 | > 100 |  |  |  |  |  |  | > 100 |  |  |  |  |  |  |  |

| Compound | TGI (MALME-3M melanoma) [µM] | TGI (SK-MEL-5 melanoma) [µM] | TGI (EKVX NSCLC) [µM] | TGI (NCI-H226 lung) [µM] | TGI (SK-MEL-2 melanoma) [µM] | TGI (M14 melanoma) [µM] | TGI (LOX IMVI melanoma) [µM] | GI50 (MALME-3M melanoma) [µM] | GI50 (SK-MEL-5 melanoma) [µM] | GI50 (EKVX NSCLC) [µM] | GI50 (NCI-H226 lung) [µM] | GI50 (RPMI-8226 leukemia) [µM] | TGI (RPMI-8226 leukemia) [µM] | GI50 (SK-MEL-2 melanoma) [µM] | GI50 (M14 melanoma) [µM] | GI50 (LOX IMVI melanoma) [µM] | GI50 (MDA-MB-435) [µM] | TGI (MDA-MB-435) [µM] | GI50 (MDA-MB-231 breast) [µM] | TGI (MDA-MB-231 breast) [µM] |
| --- | --- | --- | --- | --- | --- | --- | --- | --- | --- | --- | --- | --- | --- | --- | --- | --- | --- | --- | --- | --- |
| O=C(O)/C=C/c1nc2ccccc2c(=O)o1 |  | > 100 | > 100 | > 100 | > 100 | > 100 | > 100 |  |  |  |  |  | > 100 |  |  |  |  |  |  |  |
| Cc1cc(C)nc(NS(=O)(=O)c2ccc(Nc3c4ccccc4nc4c(C(=O)Nc5ccc(S(=O)(=O)N=C(N)N)cc5)cccc34)cc2)n1 | > 100 | > 100 | > 100 |  | > 100 | > 100 | > 100 |  |  |  |  |  | > 100 |  |  |  |  |  |  |  |
| O=S(=O)(/C=C/C(=C/c1ccccc1)S(=O)(=O)c1ccccc1)c1ccccc1 | 3.3 |  | 3.15 |  | 3.54 | 2.57 | 2.08 |  |  |  |  |  | 3.4 |  |  |  |  |  |  |  |
| Cc1ccc(-c2nc([P+](c3ccccc3)(c3ccccc3)c3ccccc3)c(S(=O)(=O)c3ccc(C)cc3)o2)cc1 | 2.19 | 3.4 | 2.98 | 24.6 | 4.41 | 3.27 | 1.3 | 1.02 | 1.81 | 1.21 | 5.05 |  |  | 2.17 | 1.51 | 0.328 | 1.56 | 3.04 | 1.52 | 2.93 |
| COc1ccc(-c2nc(/C=C3\SC(=NCc4ccccc4)NC3=O)c3ccccn23)cc1 |  | 3.19 | > 25.5 | 10 | 7.25 | 2.42 | 2.72 |  | 1.51 | 2.41 | 2.47 |  |  | 2.19 | 1.12 | 0.964 |  |  | 1.01 | 3.84 |
| O=C(CCC1C(=O)NC(=S)NC1=O)c1ccc2ccccc2c1 | > 100 | > 100 | > 100 | > 100 | > 100 | > 100 | > 100 |  |  |  |  |  |  |  |  |  |  |  |  |  |
| CC1(c2ccccc2Cl)C(C#N)C(=O)NC(=O)C1C#N (stereo unspecified) | > 100 | 74.2 | > 100 | 98 | > 100 | > 100 | > 100 |  |  |  |  |  | 59.6 |  |  |  |  |  |  |  |
| CC(C)=CC(=O)N(C)C1C2CN3CCC(O2)C13 (stereo unspecified) | > 100 | > 100 | > 100 | > 100 | > 100 | > 100 | > 100 |  |  |  |  |  |  |  |  |  |  |  |  |  |
| CCN(CC)c1ccc2c(c1)Oc1ccc(N(CC)CC)cc1C21Oc2ccccc2-c2c1c1ccccc1n2CC (stereo unspecified) | 9.27 | 25.3 | > 100 | > 100 |  | > 100 | > 100 |  |  |  |  |  | > 100 |  |  |  |  |  |  |  |
| Cc1nc(C(=O)O)c2ccccc2n1 | > 100 | > 100 |  |  | > 100 |  |  |  |  |  |  |  | > 100 |  |  |  |  |  |  |  |
| C/C(=C\c1cnc(C)s1)[C@@H]1C[C@@H]2O[C@@H]2CCC[C@H](C)[C@H](O)[C@@H](C)C(=O)C(C)(C)[C@@H](O)CC(=O)O1 |  | > 100 | > 100 | > 100 | > 100 |  | > 100 |  | < 0.01 | 0.0127 |  | < 0.01 | > 100 | < 0.0146 |  | < 0.01 |  |  | < 0.0148 | > 100 |
| C=CNC(=O)NC(=O)CSc1nnc(-c2ccccc2NC(=O)C(F)(F)F)c(=O)[nH]1 | 28.8 | 2.06 | > 100 | > 100 | > 100 | > 100 | > 100 |  |  |  |  |  |  |  |  |  |  |  |  |  |
| CC12CCC(=O)N1c1ccc([N+](=O)[O-])cc1N2 (stereo unspecified) | > 100 | > 100 | > 100 | > 100 | > 100 | > 100 | > 100 |  |  |  |  |  | > 100 |  |  |  |  |  |  |  |
| O=C(CCCCCCN1CC(=O)N2[C@@H](c3ccc(Cl)c(Cl)c3)c3[nH]c4ccccc4c3C[C@H]2C1=O)NO | 14.8 | 9.29 | > 33.3 | 12.2 | 13.2 | 14.5 |  | 2.7 | 4.73 | 7.71 | 4.52 |  |  | 4.07 | 4.22 |  | 3.13 | 8.06 | 3.47 | 9.31 |
| O=C(c1nc2ccccc2[nH]c1=O)C(O)c1ccccc1 (stereo unspecified) | > 100 | > 100 | > 100 | > 100 | > 100 | > 100 | > 100 |  |  |  |  |  | > 100 |  |  |  |  |  |  |  |
| COc1cc2c(cc1OC)-c1ncc3c(OC)c(OC)c(OC)cc3c1C2 |  | > 100 |  |  | 23.5 | > 100 |  |  | 23.5 |  |  | 2.5 | 32.3 | 0.0541 | > 100 |  |  |  | 0.404 | 11.6 |
| CC(=O)OCCOCNC(=S)N/N=C/c1cc(Br)cs1 | > 100 | > 100 | > 100 | > 100 | > 100 | > 100 | > 100 |  |  |  |  |  | > 100 |  |  |  |  |  |  |  |
